# According to ChEMBL document CHEMBL5316313, “Discovery of Novel 3-Phenylpiperidine Derivatives Targeting the β-Catenin/B-Cell Lymphoma 9 Interaction as a Single Agent and in Combination with the Anti-PD-1 Antibody for the Treatment of Colorectal Cancer” (J Med Chem, 2023):
# Activity calls are given as the source filed them. No cut-off for these calls is given here.
# Experiments:
# CT26 [1] = test: Antitumor activity in mouse CT26 cells xenografted in BALB/c mouse assessed as increase in GZMB mRNA expression level in tumor at 30 mg/kg, ip QD by qRT-PCR analysis; type: functional, organism-based
# CT26 [2] = test: Synergistic antitumor activity in mouse CT26 cells xenografted in BALB/c mouse assessed as increase in IFNgamma-positive CD8+ T cell infiltration into tumor at 30 mg/kg, ip QD in presence of anti-PD-1 antibody cotreatment at 10 mg/kg,ip BIW by flow cytometry; type: functional, organism-based
# HEK293 = test: Induction of apoptosis in Wnt-independent human HEK293 cells assessed as necrotic cells at 20 uM incubated for 24 hrs by Annexin V-Alexa Fluor 647/PI staining based flow cytomtery (Rvb=1.82%); type: functional
# HCT-116 = test: Induction of apoptosis in Wnt-dependent human HCT-116 cells assessed as early apoptotic cells at 20 uM incubated for 24 hrs by Annexin V-Alexa Fluor 647/PI staining based flow cytomtery (Rvb=14.3%); type: functional
# CT26 [3] = test: Antitumor activity against mouse CT26 cells xenografted in BALB/c mouse assessed as tumor growth inhibition at 10 to 30 mg/kg, ip QD and measured upto 9 days; type: functional, organism-based; conditions: dose 10-30 mg/kg, time <= 9.0 day
# [4] = Toxicity in BALB/c mouse xenografted with mouse CT26 cells assessed as pathological changes in heart at 30 mg/kg, ip QD in presence of anti-PD-1 antibody cotreatment at 10 mg/kg,ip BIW by hematoxylin and eosin staining based microscopic analysis; type: organism-based; conditions: in vivo
smiles,measurement,setting,value
CC(C)c1ccc(-c2cccc(S(=O)(=O)N3CCCC(c4cccc(OC(C)(C)C(=O)NS(=O)(=O)c5ccc(C(F)(F)F)cc5)c4)C3)c2)cc1 (stereo unspecified),Activity,CT26 [1],Active
same,Activity,CT26 [2],Active
same,Activity,HEK293,1.69%
same,Activity,HCT-116,26.4%
same,Activity,CT26 [3],Dose-Dependent Effect
same,Activity,[4],Non-Toxic
